Assay results reported in PubChem BioAssay (NCI).
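Growth conditions: 96-well plates. Treatment: test compound, 48 hours, 5 concentrations. Analysis: linear interpolation between bracketing concentrations; unreached endpoints set to highest concentration. Definition used: TGI = concentration required for complete inhibition of growth.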 Where a SMILES comes first, the peptide text is derived from it. The star is where a group is joined. Cbz = O=C(OCc1ccccc1)*

System: M14 melanoma
Assay: NCI anticancer screen, dose series, 48 h

Row | Compound | TGI
1 | COC(=O)C1=C(OC)[C@H]2C#C/C=C\C#C[C@@H]3Nc4c(cc(O)c5c4C(=O)c4ccccc4C5=O)[C@]24O[C@@]34[C@H]1C | < 0.01 µM
2 | CCOC(=O)CCC(NC(=O)OCc1ccccc1)C(=O)NC(CCC(=O)OCC)C(=O)OCC (centres undefined) (Cbz-Glu(OEt)-Glu(OEt)-OEt; configuration not given here) | > 100 µM
3 | CCOC(=O)C(NC(=O)c1ccccc1)(N1CCN(c2cc3c(cc2F)c(=O)c(C(=O)O)cn3C2CC2)CC1)C(F)(F)F (centres undefined) | 40.7 µM
4 | COc1ccc(C2(CC(C)C)CCN(S(=O)(=O)c3ccc(C)cc3)C2)cc1OC (centres undefined) | > 100 µM
5 | O=c1cc(NNc2cccc(Cl)c2)[nH]c(=O)[nH]1 | 37.7 µM
6 | CCOC(=O)c1sc2nc(SC)nc(Nc3ccc4c(c3)OCCO4)c2c1N | 31.7 µM
7 | CC1(C)OP(=O)(O)C=C1Sc1ccc([N+](=O)[O-])cc1[N+](=O)[O-] | > 100 µM

System: MALME-3M melanoma
Assay: NCI anticancer screen, dose series, 48 h

Row | Compound | TGI
8 | COC(=O)C1=C(OC)[C@H]2C#C/C=C\C#C[C@@H]3Nc4c(cc(O)c5c4C(=O)c4ccccc4C5=O)[C@]24O[C@@]34[C@H]1C | 0.103 µM
9 | CCOC(=O)CCC(NC(=O)OCc1ccccc1)C(=O)NC(CCC(=O)OCC)C(=O)OCC (centres undefined) (Cbz-Glu(OEt)-Glu(OEt)-OEt; configuration not given here) | > 100 µM
10 | CCOC(=O)C(NC(=O)c1ccccc1)(N1CCN(c2cc3c(cc2F)c(=O)c(C(=O)O)cn3C2CC2)CC1)C(F)(F)F (centres undefined) | 39.3 µM
11 | O=c1cc(NNc2cccc(Cl)c2)[nH]c(=O)[nH]1 | 30.6 µM
12 | CCOC(=O)c1sc2nc(SC)nc(Nc3ccc4c(c3)OCCO4)c2c1N | 30.5 µM
13 | CC1(C)OP(=O)(O)C=C1Sc1ccc([N+](=O)[O-])cc1[N+](=O)[O-] | > 100 µM

System: MCF7 breast
Assay: NCI anticancer screen, dose series, 48 h

Row | Compound | TGI
14 | COC(=O)C1=C(OC)[C@H]2C#C/C=C\C#C[C@@H]3Nc4c(cc(O)c5c4C(=O)c4ccccc4C5=O)[C@]24O[C@@]34[C@H]1C | 0.126 µM
15 | CCOC(=O)CCC(NC(=O)OCc1ccccc1)C(=O)NC(CCC(=O)OCC)C(=O)OCC (centres undefined) (Cbz-Glu(OEt)-Glu(OEt)-OEt; configuration not given here) | > 100 µM
16 | COc1ccc(C2(CC(C)C)CCN(S(=O)(=O)c3ccc(C)cc3)C2)cc1OC (centres undefined) | > 100 µM
17 | O=c1cc(NNc2cccc(Cl)c2)[nH]c(=O)[nH]1 | 17.3 µM
18 | CCOC(=O)c1sc2nc(SC)nc(Nc3ccc4c(c3)OCCO4)c2c1N | 23.6 µM
19 | CC1(C)OP(=O)(O)C=C1Sc1ccc([N+](=O)[O-])cc1[N+](=O)[O-] | > 100 µM

System: MDA-MB-231 breast
Assay: NCI anticancer screen, dose series, 48 h

Row | Compound | TGI
20 | c1ccc2c(c1)Nc1cccc3c1c-2nc1ccccc13 | 2.69 µM
21 | COC(=O)C1=C(OC)[C@H]2C#C/C=C\C#C[C@@H]3Nc4c(cc(O)c5c4C(=O)c4ccccc4C5=O)[C@]24O[C@@]34[C@H]1C | 0.0179 µM
22 | CCOC(=O)CCC(NC(=O)OCc1ccccc1)C(=O)NC(CCC(=O)OCC)C(=O)OCC (centres undefined) (Cbz-Glu(OEt)-Glu(OEt)-OEt; configuration not given here) | > 100 µM
23 | CCOC(=O)C(NC(=O)c1ccccc1)(N1CCN(c2cc3c(cc2F)c(=O)c(C(=O)O)cn3C2CC2)CC1)C(F)(F)F (centres undefined) | 31 µM
24 | COc1ccc(C2(CC(C)C)CCN(S(=O)(=O)c3ccc(C)cc3)C2)cc1OC (centres undefined) | > 100 µM
25 | O=c1cc(NNc2cccc(Cl)c2)[nH]c(=O)[nH]1 | 32.1 µM
26 | CCOC(=O)c1sc2nc(SC)nc(Nc3ccc4c(c3)OCCO4)c2c1N | 25.9 µM

System: MDA-MB-435
Assay: NCI anticancer screen, dose series, 48 h

Row | Compound | TGI
27 | COC(=O)C1=C(OC)[C@H]2C#C/C=C\C#C[C@@H]3Nc4c(cc(O)c5c4C(=O)c4ccccc4C5=O)[C@]24O[C@@]34[C@H]1C | 0.0448 µM
28 | CCOC(=O)CCC(NC(=O)OCc1ccccc1)C(=O)NC(CCC(=O)OCC)C(=O)OCC (centres undefined) (Cbz-Glu(OEt)-Glu(OEt)-OEt; configuration not given here) | > 100 µM
29 | CCOC(=O)C(NC(=O)c1ccccc1)(N1CCN(c2cc3c(cc2F)c(=O)c(C(=O)O)cn3C2CC2)CC1)C(F)(F)F (centres undefined) | 45.2 µM
30 | COc1ccc(C2(CC(C)C)CCN(S(=O)(=O)c3ccc(C)cc3)C2)cc1OC (centres undefined) | > 100 µM
31 | CCOC(=O)c1sc2nc(SC)nc(Nc3ccc4c(c3)OCCO4)c2c1N | 42.7 µM
32 | CC1(C)OP(=O)(O)C=C1Sc1ccc([N+](=O)[O-])cc1[N+](=O)[O-] | > 100 µM

System: MDA-N
Assay: NCI anticancer screen, dose series, 48 h

Row | Compound | TGI
33 | c1ccc2c(c1)Nc1cccc3c1c-2nc1ccccc13 | 2.05 µM
34 | COC(=O)C1=C(OC)[C@H]2C#C/C=C\C#C[C@@H]3Nc4c(cc(O)c5c4C(=O)c4ccccc4C5=O)[C@]24O[C@@]34[C@H]1C | 0.0113 µM
35 | CCOC(=O)CCC(NC(=O)OCc1ccccc1)C(=O)NC(CCC(=O)OCC)C(=O)OCC (centres undefined) (Cbz-Glu(OEt)-Glu(OEt)-OEt; configuration not given here) | > 100 µM
36 | CCOC(=O)C(NC(=O)c1ccccc1)(N1CCN(c2cc3c(cc2F)c(=O)c(C(=O)O)cn3C2CC2)CC1)C(F)(F)F (centres undefined) | 46.8 µM
37 | COc1ccc(C2(CC(C)C)CCN(S(=O)(=O)c3ccc(C)cc3)C2)cc1OC (centres undefined) | > 100 µM
38 | O=c1cc(NNc2cccc(Cl)c2)[nH]c(=O)[nH]1 | > 100 µM
39 | CCOC(=O)c1sc2nc(SC)nc(Nc3ccc4c(c3)OCCO4)c2c1N | > 100 µM
40 | CC1(C)OP(=O)(O)C=C1Sc1ccc([N+](=O)[O-])cc1[N+](=O)[O-] | > 100 µM

System: MOLT-4 leukemia
Assay: NCI anticancer screen, dose series, 48 h

Row | Compound | TGI
41 | c1ccc2c(c1)Nc1cccc3c1c-2nc1ccccc13 | 1.78 µM
42 | COC(=O)C1=C(OC)[C@H]2C#C/C=C\C#C[C@@H]3Nc4c(cc(O)c5c4C(=O)c4ccccc4C5=O)[C@]24O[C@@]34[C@H]1C | < 0.01 µM
43 | CCOC(=O)CCC(NC(=O)OCc1ccccc1)C(=O)NC(CCC(=O)OCC)C(=O)OCC (centres undefined) (Cbz-Glu(OEt)-Glu(OEt)-OEt; configuration not given here) | > 100 µM
44 | CCOC(=O)C(NC(=O)c1ccccc1)(N1CCN(c2cc3c(cc2F)c(=O)c(C(=O)O)cn3C2CC2)CC1)C(F)(F)F (centres undefined) | 32.8 µM
45 | COc1ccc(C2(CC(C)C)CCN(S(=O)(=O)c3ccc(C)cc3)C2)cc1OC (centres undefined) | 17.4 µM
46 | O=c1cc(NNc2cccc(Cl)c2)[nH]c(=O)[nH]1 | 60.1 µM
47 | CCOC(=O)c1sc2nc(SC)nc(Nc3ccc4c(c3)OCCO4)c2c1N | > 100 µM

System: NCI-H226 lung
Assay: NCI anticancer screen, dose series, 48 h

Row | Compound | TGI
48 | c1ccc2c(c1)Nc1cccc3c1c-2nc1ccccc13 | > 100 µM
49 | COC(=O)C1=C(OC)[C@H]2C#C/C=C\C#C[C@@H]3Nc4c(cc(O)c5c4C(=O)c4ccccc4C5=O)[C@]24O[C@@]34[C@H]1C | < 0.01 µM
